Data set [1] is described as follows: AUCinfinity in CD1 mouse liver assessed as baloxavir acid level at 15 mg/kg, po administered as single dose measured up to 24 hrs by LC-MS/MS analysis. The data set is classed as ADME, organism-based. More on the design: dose 15 mg/kg, route oral, time infinity. The conditions noted are these: in vivo.
A short description of data set [2]: AUClast in CD1 mouse blood assessed as baloxavir acid level at 15 mg/kg, po administered as single dose measured up to 24 hrs by LC-MS/MS analysis. It counts as ADME, organism-based. The settings on record: in vivo.
Data set [3] in a line: AUCinfinity in CD1 mouse brain assessed as baloxavir acid level at 15 mg/kg, po administered as single dose measured up to 24 hrs by LC-MS/MS analysis. The settings on record: in vivo. On the set-up: dose 15 mg/kg, time infinity, route oral. The data set is classed as ADME, organism-based.
Data set [4] is described as follows: Elimination rate constant in CD1 mouse blood assessed as baloxavir acid level at 15 mg/kg, po administered as single dose measured up to 24 hrs by LC-MS/MS analysis. It counts as ADME, organism-based. The conditions noted are these: in vivo.
Data set [5] can be described thus: AUCinfinity in CD1 mouse kidney assessed as baloxavir acid level at 15 mg/kg, po administered as single dose measured up to 24 hrs by LC-MS/MS analysis. It counts as ADME, organism-based. More on the design: dose 15 mg/kg, time infinity, route oral. The settings on record: in vivo.
Data set [6] is described as follows: Tmax in CD1 mouse blood assessed as baloxavir acid level at 15 mg/kg, po administered as single dose measured up to 24 hrs by LC-MS/MS analysis. The conditions noted are these: in vivo. The data set is classed as ADME, organism-based.
Data set [7] in a line: Tmax in CD1 mouse kidney assessed as baloxavir acid level at 15 mg/kg, po administered as single dose measured up to 24 hrs by LC-MS/MS analysis. The settings on record: in vivo. It counts as ADME, organism-based.
The nature of data set [8]: Half life in CD1 mouse kidney assessed as baloxavir acid level at 15 mg/kg, po administered as single dose measured up to 24 hrs by LC-MS/MS analysis. The data set is classed as ADME, organism-based. The conditions noted are these: in vivo.
Data set [9] is described as follows: MRTlast in CD1 mouse plasma assessed as baloxavir acid level at 15 mg/kg, po administered as single dose measured up to 24 hrs by LC-MS/MS analysis. The data set is classed as ADME, organism-based. The conditions noted are these: in vivo.
Data set [10] can be described thus: AUClast in CD1 mouse kidney assessed as baloxavir acid level at 15 mg/kg, po administered as single dose measured up to 24 hrs by LC-MS/MS analysis. The conditions noted are these: in vivo. It counts as ADME, organism-based.
Data set [11] in a line: Elimination rate constant in CD1 mouse heart assessed as baloxavir acid level at 15 mg/kg, po administered as single dose measured up to 24 hrs by LC-MS/MS analysis. It counts as ADME, organism-based. The settings on record: in vivo.
Data set [12] in a line: Half life in CD1 mouse plasma assessed as baloxavir acid level at 15 mg/kg, po administered as single dose measured up to 24 hrs by LC-MS/MS analysis. It counts as ADME, organism-based. The settings on record: in vivo.
Data set [13] is described as follows: Ratio of AUClast in CD1 mouse heart to plasma assessed as baloxavir acid level at 15 mg/kg, po administered as single dose measured up to 24 hrs by LC-MS/MS analysis. The data set is classed as ADME, organism-based. The conditions noted are these: other tissue.
Data set [14] can be described thus: Ratio of AUClast in CD1 mouse muscle to plasma assessed as baloxavir acid level at 15 mg/kg, po administered as single dose measured up to 24 hrs by LC-MS/MS analysis. It counts as ADME, organism-based. The settings on record: other tissue.
A short description of data set [15]: Tmax in CD1 mouse heart assessed as baloxavir acid level at 15 mg/kg, po administered as single dose measured up to 24 hrs by LC-MS/MS analysis. It counts as ADME, organism-based. The conditions noted are these: in vivo.
A short description of data set [16]: Ratio of free drug level in CD1 mouse blood assessed as (12aR)-12-(Diphenylmethyl)-7-hydroxy-3,4,12,12a-tetrahydro-1H-[1,4]oxazino[3,4-c]pyrido[2,1-f ][1,2,4]triazine-6,8-dione level at 20 mg/kg, po to EC50 for antiviral activity against Influenza A/California/04/2009 (H1N1)pdm09 infected in MDCK cells. The data set is classed as ADME, organism-based. The settings on record: in vivo.

Data set [17] can be described thus: Half life in CD1 mouse muscle assessed as (12aR)-12-(Diphenylmethyl)-7-hydroxy-3,4,12,12a-tetrahydro-1H-[1,4]oxazino[3,4-c]pyrido[2,1-f ][1,2,4]triazine-6,8-dione level at 15 mg/kg, po administered as single dose measured up to 24 hrs by LC-MS/MS analysis. The data set is classed as ADME, organism-based, Muscle tissue. The settings on record: in vivo.
The nature of data set [18]: Tmax in CD1 mouse spleen assessed as (12aR)-12-(Diphenylmethyl)-7-hydroxy-3,4,12,12a-tetrahydro-1H-[1,4]oxazino[3,4-c]pyrido[2,1-f ][1,2,4]triazine-6,8-dione level at 15 mg/kg, po administered as single dose measured up to 24 hrs by LC-MS/MS analysis. It counts as ADME, organism-based. The settings on record: in vivo.
Data set [19] is described as follows: Cytotoxicity against human HepG2 cells assessed as reduction in cell viability measured after 24 hrs in presence of glucose by MTT assay. It counts as cell-based. In general terms: Tetrazolium assays rely on reduction of a dye to a coloured formazan, in cell work by metabolically active cells.
A short description of data set [20]: AUCinfinity in CD1 mouse lung assessed as (12aR)-12-(Diphenylmethyl)-7-hydroxy-3,4,12,12a-tetrahydro-1H-[1,4]oxazino[3,4-c]pyrido[2,1-f ][1,2,4]triazine-6,8-dione level at 15 mg/kg, po administered as single dose measured up to 24 hrs by LC-MS/MS analysis. The data set is classed as ADME, organism-based. The settings on record: in vivo. More on the design: dose 15 mg/kg, route oral, time infinity.

Data set [21] can be described thus: MRTlast in CD1 mouse trachea assessed as (12aR)-12-(Diphenylmethyl)-7-hydroxy-3,4,12,12a-tetrahydro-1H-[1,4]oxazino[3,4-c]pyrido[2,1-f ][1,2,4]triazine-6,8-dione level at 15 mg/kg, po administered as single dose measured up to 24 hrs by LC-MS/MS analysis. The data set is classed as ADME, organism-based. The conditions noted are these: in vivo.
The nature of data set [22]: Selectivity ratio of CC50 for human HepG2 cells assessed as reduction in cell viability measured after 24 hrs in presence of glucose to CC50 for human HepG2 cells assessed as reduction in cell viability measured after 24 hrs in presence of galactose. The data set is classed as cell-based.
A short description of data set [23]: Tmax in CD1 mouse small intestine assessed as (12aR)-12-(Diphenylmethyl)-7-hydroxy-3,4,12,12a-tetrahydro-1H-[1,4]oxazino[3,4-c]pyrido[2,1-f ][1,2,4]triazine-6,8-dione level at 15 mg/kg, po administered as single dose measured up to 24 hrs by LC-MS/MS analysis. The conditions noted are these: in vivo. It counts as ADME, organism-based.
A short description of data set [24]: Elimination rate constant in CD1 mouse plasma assessed as (12aR)-12-(Diphenylmethyl)-7-hydroxy-3,4,12,12a-tetrahydro-1H-[1,4]oxazino[3,4-c]pyrido[2,1-f ][1,2,4]triazine-6,8-dione level at 15 mg/kg, po administered as single dose measured up to 24 hrs by LC-MS/MS analysis. The data set is classed as ADME, organism-based. The conditions noted are these: in vivo.

A short description of data set [25]: Stability in mouse plasma assessed as parent compound remaining at 1 uM measured after 4 hrs by LC-MS/MS analysis. It counts as ADME, cell-free. The conditions noted are these: read-out: Stability.
Data set [26] is described as follows: Tmax in CD1 mouse trachea assessed as (12aR)-12-(Diphenylmethyl)-7-hydroxy-3,4,12,12a-tetrahydro-1H-[1,4]oxazino[3,4-c]pyrido[2,1-f ][1,2,4]triazine-6,8-dione level at 15 mg/kg, po administered as single dose measured up to 24 hrs by LC-MS/MS analysis. It counts as ADME, organism-based. The conditions noted are these: in vivo.
Data set [27] is described as follows: AUCinfinity in CD1 mouse plasma assessed as (12aR)-12-(Diphenylmethyl)-7-hydroxy-3,4,12,12a-tetrahydro-1H-[1,4]oxazino[3,4-c]pyrido[2,1-f ][1,2,4]triazine-6,8-dione level at 15 mg/kg, po administered as single dose measured up to 24 hrs by LC-MS/MS analysis. The data set is classed as ADME, organism-based. More on the design: dose 15 mg/kg, time infinity, route oral. The conditions noted are these: in vivo.

The nature of data set [28]: Acute toxicity in CD1 mouse assessed as effect on lung at 2000 mg/kg, po measured after 2 weeks by macroscopic analysis. The data set is classed as organism-based. The settings on record: in vivo, 336 h.

As usually defined, the Tmax is the time from dosing to the highest level. The term CC50 denotes the concentration giving 50% cytotoxicity.

As for `COC(=O)OCOc1c2n(ccc1=O)N([C@@H]1c3ccccc3SCc3c1ccc(F)c3F)[C@@H]1COCCN1C2=O` [BALOXAVIR MARBOXIL], the AUC is 85348 ng·h/g in [1], 411 ng·h/g in data set [3] and 21287 ng·h/g in data set [5]. The AUClast is 1381 ng·h/g in data set [2] and 21162 ng·h/g in data set [10]. Moreover, the Kel turned out to be 0.21 h⁻¹ in [4] and 0.2 h⁻¹ in [11]. Besides, the Tmax in [6], in data set [7] and in data set [15] was 2 h throughout. Besides, the t1/2 in [8] is 3.26 h; in data set [12] it was 3.8 h. Further, the MRTlast in data set [9] worked out at 2.57 h. The results for the “Ratio AUC” value in data set [13] and in data set [14] were 19.8 and 10.4, respectively.

For `COC(=O)OCOc1c2n(ccc1=O)N(C(c1ccccc1)c1ccccc1)[C@@H]1COCCN1C2=O`, the Ratio in [16] is given as 18. Further, the t1/2 in [17] amounted to 1.71 h. For the same molecule, the Tmax in data set [18], in [23] and in data set [26] was 0.5 h each time. In data set [19], the CC50 at 24 h amounted to 51 µM. The AUC worked out at 8547 ng·h/g in data set [20] and 3385 ng·h/mL in [27]. In data set [21], the MRTlast amounted to 3.55 h. The selectivity ratio at 24 h in data set [22] was found to be 0.9. Moreover, the Kel in [24] turned out to be 0.44 h⁻¹. The remaining at 4 h, 1 µM in data set [25] was found to be 0%. Besides, the Activity entry in [28] is “Non-Toxic”.

The values are drawn from ChEMBL document CHEMBL4622979, “Non-rigid Diarylmethyl Analogs of Baloxavir as Cap-Dependent Endonuclease Inhibitors of Influenza Viruses” (J Med Chem, 2020).
